From US20240189316A1, “DEUTERATED ANALOGS OF ETIFOXINE AND METHODS OF ADMINISTRATION WITHOUT AUTOINDUCTION OF METABOLISM” (Gaba Therapeutics Inc., priority 2022, published 2024)

Columns and labels:
[1] = Stability in human liver microsomes; type: in vitro ADME; conditions: for half-life: read-out: T½
[2] = Stability in rat liver microsomes; type: in vitro ADME; conditions: for half-life: read-out: T½
[3] = Stability in mouse liver microsomes; type: in vitro ADME; conditions: for half-life: read-out: T½
[4] = cited from earlier work
[5] = Phase 1 multiple-ascending dose study, plasma pharmacokinetics in healthy subjects; type: in vivo, human; set-up: Geometric mean trough concentration: unit not given here
Description: The first dose of study drug was given on Day 1. On Days 1 through 6, subjects subsequently received two (q12h) oral doses of study drug each day. A final single dose of study drug was given on Day 7. Each dose of study drug was given with a 240 mL glass of water at the end of ingestion of a standard meal. The meal was provided 30 minutes before dosing and was completed within 30 minutes or less. On Day 1 and Day 7, subjects were required to fast for 8 hours before the morning meal dose and for 2 hours post dose (water was freely available during this time).

[6] = Plasma concentration-time profile following 50 mg/kg GRX-917 and etifoxine in rats (FIG. 1); type: in vivo, rat

Compound: CCNC1=Nc2ccc(Cl)cc2C(C)(c2ccccc2)O1 (stereo not shown) [Etifoxine, 6-chloro-2-(ethylamino)-4-methyl-4-phenyl-4H-3,1-benzoxazine]
- microsomal CLint [1]: 309 µL/min/mg
- half-life [1]: 22 min
- microsomal CLint [2]: 915 µL/min/mg
- half-life [2]: 8 min
- microsomal CLint [3]: 657 µL/min/mg
- half-life [3]: 11 min
- Auto-induction of CYP enzyme(s) on continued dosing ([4]; continued dosing over time): exhibits an auto-induction effect
- Half-life in humans ([4]; humans): 240 to 360 min

Compound: [2H]C([2H])([2H])C([2H])([2H])NC1=Nc2ccc(Cl)cc2C(C)(c2ccccc2)O1 (racemic) [Deuterated Etifoxine, 6-chloro-N-(ethyl-d5)-4-methyl-4-phenyl-4H-3,1-benzoxazin-2-amine]
- microsomal CLint [1]: 170 µL/min/mg
- half-life [1]: 41 min
- microsomal CLint [2]: 503 µL/min/mg
- half-life [2]: 14 min
- microsomal CLint [3]: 464 µL/min/mg
- half-life [3]: 15 min
- Induction of metabolism ([5]; 100 mg bid): did not induce metabolism
- Geometric mean trough concentration ([5]; 100 mg q12 h, Day 1): 11.6
- Geometric mean trough concentration ([5]; 100 mg q12 h, Day 2): 36.1
- Geometric mean trough concentration ([5]; 100 mg q12 h, Day 4): 39.3
- Geometric mean trough concentration ([5]; 100 mg q12 h, Day 5): 31.9
- Geometric mean trough concentration ([5]; 100 mg q12 h, Day 6): 34.0
- Geometric mean trough concentration ([5]; 100 mg q12 h, Day 7 (12-hr post-dose)): 27.1
- Geometric mean trough concentration ([5]; 100 mg q12 h, Day 7 (pre-dose)): 27.7
- Induction of metabolism ([5]; 150 mg bid (twice daily)): induces metabolism
- Geometric mean trough concentration ([5]; 150 mg q12 h, Day 1): 28.1
- Geometric mean trough concentration ([5]; 150 mg q12 h, Day 2): 43.8
- Geometric mean trough concentration ([5]; 150 mg q12 h, Day 4): 44.5
- Geometric mean trough concentration ([5]; 150 mg q12 h, Day 5): 39.2
- Geometric mean trough concentration ([5]; 150 mg q12 h, Day 6): 37.7
- Geometric mean trough concentration ([5]; 150 mg q12 h, Day 7 (12-hr post-dose)): 31.4
- Geometric mean trough concentration ([5]; 150 mg q12 h, Day 7 (pre-dose)): 33.3
- Geometric mean trough concentration ([5]; 200 mg q12 h, Day 1): 42.8
- Geometric mean trough concentration ([5]; 200 mg q12 h, Day 2): 72.3
- Geometric mean trough concentration ([5]; 200 mg q12 h, Day 4): 67.2
- Geometric mean trough concentration ([5]; 200 mg q12 h, Day 5): 62.4
- Geometric mean trough concentration ([5]; 200 mg q12 h, Day 6): 53.7
- Geometric mean trough concentration ([5]; 200 mg q12 h, Day 7 (12-hr post-dose)): 51.4
- Geometric mean trough concentration ([5]; 200 mg q12 h, Day 7 (pre-dose)): 58.9
- Geometric mean trough concentration ([5]; 300 mg q12 h, Day 1): 54.9
- Geometric mean trough concentration ([5]; 300 mg q12 h, Day 2): 87.4
- Geometric mean trough concentration ([5]; 300 mg q12 h, Day 4): 71.0
- Geometric mean trough concentration ([5]; 300 mg q12 h, Day 5): 70.0
- Geometric mean trough concentration ([5]; 300 mg q12 h, Day 6): 66.3
- Geometric mean trough concentration ([5]; 300 mg q12 h, Day 7 (12-hr post-dose)): 60.4
- Geometric mean trough concentration ([5]; 300 mg q12 h, Day 7 (pre-dose)): 63.0
- Tmax dependence on dose ([5]; Day 7, statistical analysis): independent of dose
- half-life ([5]; both sexes, human, plasma, oral, Day 7, read-out: Geometric mean t1/2): 38.8 to 82.1 h
- Tmax ([5]; both sexes, human, plasma, single and multiple oral doses of 100-300 mg q12h, post-dose, read-out: Median Tmax): 120 to 211 min
- Fraction of dose excreted as deuterated etifoxine ([5]; renal elimination): < 0.004%
- AUC as compared to etifoxine [6]: approximately 3 fold
